Measurements taken from patent publication US5629285A, “Inhibitors of TNF-α secretion” (Immunex Corporation, priority 1996, dated 1997).
Values belong to the compound of their own block, whether it stands above or below them.

Experiments:
purified TACE = purified TACE (Homo sapiens, UniProt P78536); assay: Serum stability in normal mouse serum, read out as inhibitory efficacy against purified TACE; type: in vitro ADME; conditions: 50 μM in normal mouse serum, 37° C., after 40 minutes
Protocol: Each of Compound 1 and Compound A was diluted to 50 μM in normal mouse serum and incubated at 37° C. At various times, aliquots were withdrawn, diluted 100-fold into ice-cold PBS, and tested for inhibitory, efficacy against purified TACE.

serum TNF-α [1] = assay: In vivo inhibition of TACE: LPS-induced serum TNF levels, 250 μg compound s.c.; design: species or system Balb/c mice; conditions: 2 hours; for serum TNF-α, mean optical density (OD) in the ELISA: 250 μg s.c. in saline/DMSO with 450 μg LPS i.v., three mice, LPS + Saline + DMSO 0.268 ± 0.040, background OD 0.162±0.003; for effect on serum TNF-α levels in LPS-stimulated mice: 250 μg s.c., 450 μg LPS i.v.
Protocol: Female Balb/c mice (18-20 g) were injected i.v. with 450 μg of LPS. Simultaneously, the mice were injected subcutaneously with 250 μg of Compound A or Compound 1 in 0.25 ml of saline containing 0.02% DMSO. Control mice received LPS intravenously and saline/DMSO subcutaneously. Two hours following the LPS injection, serum was obtained from three mice in each treatment group. TNF-α levels were determined by ELISA. The results are expressed as the mean optical density (OD) obtained in the ELISA from each treatment group, and are shown in Table V. The background OD of the control sample was 0.162±0.003.

serum TNF-α [2] = assay: In vivo inhibition of TACE: LPS-induced serum TNF levels, 500 μg compound s.c.; design: species or system Balb/c mice; conditions: for Serum TNF-α level: 500 μg s.c. with 400 μg LPS i.v., serum 2 hours after LPS, pooled from two mice, Saline/DMSO control 157
Protocol: Female Balb/c mice (18-20 g) were injected i.v. with 400 μg of LPS. Simultaneously, the mice were injected subcutaneously with 500 μg of Compound A or Compound 1 in 0.5 ml of saline containing 0.02% DMSO. Control mice received LPS intravenously and saline/DMSO subcutaneously. Two hours following the LPS injection, serum was obtained and pooled from two mice in each treatment group.
In a similar manner to the procedure described above, mice were injected i.v. with 400 μg LPS. Simultaneously, the mice were injected subcutaneously with 500 μg Compound 1 in 0.5 ml saline containing 0.02% DMSO. Two hours later, serum was obtained and pooled. TNF-α levels were determined by ELISA.

IL-4 = assay: Cell surface IL-4 on PMA + ionomycin-stimulated human T-cell clone PL-1 (IL-4R:Fc staining, negative control); type: cell-based; conditions: + Compound 1 (10 without)
Protocol: (§1) Detection of cell surface TNF-α was performed by staining with an Fc fusion protein consisting of an Fc portion of a human IgG1 molecule (IgGFc) coupled with an extracellular domain of TNF receptor (p80). Detection of cell surface ligands for 41BB and CD40 was performed by staining with analogous Fc fusion proteins consisting of IgGFc and extracellular domains of 41BB and CD40, respectively. […] TNFR:Fc and IL-4R:Fc fusion proteins are described in EP 0 464 533, incorporated herein by reference. The same general procedures used to construct the TNFR:Fc and IL-4R:Fc fusion molecules were utilized in the construction of the 41BB:Fc and CD40:Fc molecules. Fc fusion proteins bound to their respective cell-surface ligands were then detected with a biotinylated anti-human IgG1 followed by streptavidin-phycoerythrin. The intensity of staining was measured by a FACS (fluorescence activated cell sorting) scan flow cytometer.

CD40L = assay: Cell surface CD40L on PMA + ionomycin-stimulated human T-cell clone PL-1 (CD40:Fc staining, FACS); type: cell-based
Protocol: as §1

cell surface TNF-α = assay: Cell surface TNF-α on PMA + ionomycin-stimulated human T-cell clone PL-1 (TNFR:Fc staining, FACS); type: cell-based
Protocol: as §1

41BBL = assay: Cell surface 41BBL on PMA + ionomycin-stimulated human T-cell clone PL-1 (41BB:Fc staining, FACS); type: cell-based
Protocol: as §1

IFN-γ secretion = assay: IFN-γ production by anti-CD3 + PMA stimulated peripheral blood T-cells; type: cell-based, human
Protocol: [The source words this procedure for another target and reports this target under the same test.] (§2) Human peripheral blood T-cells were purified from peripheral blood mononuclear cells by rosetting with 2-aminoethylisothiouronium bromide hydrobromide-treated sheep erythrocytes. After hypotonic lysis of sheep erythrocytes, monocytes were depleted by plastic adherence for one hour at 37° C. The peripheral […] T-cells were stimulated with anti-CD3 antibody (OKT3) which was immobilized on the culture wells at 10 μg/ml in PBS plus […] of the phorbol ester, PMA. Culture medium comprised RPMI 1640 medium containing 10% fetal bovine serum, 50 U/ml penicillin, and 50 μg/ml streptomycin. The stimulation was performed in the presence or absence of the inhibitor Compound 1 (200 μM), and TNF-α in the medium was assayed by ELISA.

TNF-α secretion = assay: Inhibition of TNF-α release by anti-CD3 + PMA stimulated peripheral blood T-cells (ELISA); type: cell-based, human; design: key to TNF-α (pg/ml), 3 Hrs.: .dagger.: undetectable
Protocol: as §2

TNF-β secretion = assay: TNF-β production by anti-CD3 + PMA stimulated peripheral blood T-cells; type: cell-based, human; design: key to TNF-β (pg/ml), 3 Hrs.: .dagger.: undetectable
Protocol: [The source words this procedure for another target and reports this target under the same test.] as §2

[3] = with Compound 1 200 μM, 24 Hrs.
[4] = with Compound 1 200 μM, 48 Hrs.

purified TACE, sequence (P78536 215-824): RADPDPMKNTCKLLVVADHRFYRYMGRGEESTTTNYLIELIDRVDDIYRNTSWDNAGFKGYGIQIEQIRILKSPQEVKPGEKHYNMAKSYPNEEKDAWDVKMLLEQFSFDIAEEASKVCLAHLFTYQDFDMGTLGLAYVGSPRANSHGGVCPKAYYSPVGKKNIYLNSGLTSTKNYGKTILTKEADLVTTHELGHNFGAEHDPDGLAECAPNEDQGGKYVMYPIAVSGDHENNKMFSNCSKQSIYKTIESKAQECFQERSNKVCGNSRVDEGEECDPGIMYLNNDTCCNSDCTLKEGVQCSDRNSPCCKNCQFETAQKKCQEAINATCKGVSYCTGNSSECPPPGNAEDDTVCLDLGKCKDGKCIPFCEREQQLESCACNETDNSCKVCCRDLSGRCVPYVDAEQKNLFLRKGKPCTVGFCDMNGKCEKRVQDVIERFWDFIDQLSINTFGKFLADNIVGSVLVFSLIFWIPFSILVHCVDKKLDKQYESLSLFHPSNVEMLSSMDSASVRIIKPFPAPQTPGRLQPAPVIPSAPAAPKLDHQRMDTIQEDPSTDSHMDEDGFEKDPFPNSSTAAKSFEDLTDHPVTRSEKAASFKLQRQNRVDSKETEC

decrease in inhibitory effect against purified TACE, as loss in concentration of the compound (purified TACE): 3-4 fold
Structure (SMILES): CC(C)CC(CC(=O)NO)C(=O)N[C@@H](Cc1ccc2ccccc2c1)C(=O)N[C@@H](C)C(N)=O (stereo partly drawn) [Compound A, N-{D,L-2-(hydroxyaminocarbonyl)methyl-4-methylpentanoyl}L-3-(2'naphthyl)-a lanyl-L-alanine amide, reference compound]
serum TNF-α, mean optical density (OD) in the ELISA (serum TNF-α [1]): 0.299 ± 0.023 OD | effect on serum TNF-α levels in LPS-stimulated mice (serum TNF-α [1]): no effect | Serum TNF-α level (serum TNF-α [2]): 65 pg/mL | reduction of serum TNF-α levels as compared to the saline/DMSO control (serum TNF-α [2]; 500 μg s.c., 400 μg LPS i.v., 2 hours): approximately 60%

decrease in inhibitory effect against purified TACE, as loss in concentration of the compound (purified TACE): no decrease
Structure (SMILES): CC(C)CC(CC(=O)NO)C(=O)N[C@@H](Cc1ccc2ccccc2c1)C(=O)N[C@@H](C)C(=O)NCCN (stereo partly drawn) [Compound 1, N-{D,L-2-(hydroxyaminocarbonyl)methyl-4-methylpentanoyl}-L-3-(2'-naphthyl) alanyl-L-alanine, 2-aminoethyl amide]
cell surface IL-4 (MFI) (IL-4; 4h after stimulation): 10 MFI, arbitrary units | cell surface IL-4 (MFI) (IL-4; 18h after stimulation): 10 MFI, arbitrary units | cell surface CD40L (MFI) (CD40L; 4h after stimulation, + Compound 1 (107 without)): 107 MFI, arbitrary units | cell surface CD40L (MFI) (CD40L; 18h after stimulation, + Compound 1 (19 without)): 46 MFI, arbitrary units | enhancement of CD40:Fc binding (CD40L; 18 hours of stimulation): approximately 2 fold | increase on CD40:Fc binding (CD40L; four hours of stimulation): no increase | cell surface TNF-α (MFI) (cell surface TNF-α; 4h after stimulation, + Compound 1 (83 without)): 3040 MFI, arbitrary units | cell surface TNF-α (MFI) (cell surface TNF-α; 18h after stimulation, + Compound 1 (7 without)): 616 MFI, arbitrary units | increase in TNFR:Fc binding (cell surface TNF-α; 18 hours of stimulation, presence vs absence of Compound 1): 100 fold | cell surface 41BBL (MFI) (41BBL; 4h after stimulation, + Compound 1 (428 without)): 344 MFI, arbitrary units | cell surface 41BBL (MFI) (41BBL; 18h after stimulation, + Compound 1 (5 without)): 9 MFI, arbitrary units | enhancement of 41BB:Fc binding (41BBL; 18 hours of stimulation): approximately 2 fold | increase on 41BB:Fc binding (41BBL; four hours of stimulation): no increase | serum TNF-α, mean optical density (OD) in the ELISA (serum TNF-α [1]): 0.147 ± 0.004 OD | effect on serum TNF-α levels in LPS-stimulated mice (serum TNF-α [1]): complete inhibition | inhibitory effect on the release of interferon-γ (IFN-γ secretion; 200 μM, 24 and 48 hours): no inhibitory effect | IFN-γ (ELISA OD), 3 Hrs. (IFN-γ secretion; with Compound 1 200 μM, 3 Hrs.): 0.2 ELISA OD | IFN-γ (ELISA OD), 24 Hrs. (IFN-γ secretion; [3]): 0.9 ELISA OD | IFN-γ (ELISA OD), 48 Hrs. (IFN-γ secretion; [4]): 1.08 ELISA OD | Serum TNF-α level (serum TNF-α [2]): undetectable | reduction of serum TNF-α levels in a murine model of LPS-induced sepsis syndrome (serum TNF-α [2]; 25 mg/kg, from Tables III and IV): at least 80% | LPS-induced serum TNF level (serum TNF-α [2]; Experiment No. 1, 500 μg s.c., 400 μg LPS i.v., 2 hours, LPS only 1696, LPS + Saline 1268): 301 pg/mL | LPS-induced serum TNF level (serum TNF-α [2]; Experiment No. 2, 500 μg s.c., 400 μg LPS i.v., 2 hours, LPS only 2527, LPS + Saline 1768): 269 pg/mL | LPS-induced serum TNF level (serum TNF-α [2]; Experiment No. 3, 500 μg s.c., 400 μg LPS i.v., 2 hours, LPS only 1833, LPS + Saline 1732): 281 pg/mL | reduction of serum TNF-α levels as compared to LPS only (serum TNF-α [2]; experiment 1, 500 μg s.c.): 82% | reduction of serum TNF-α levels as compared to LPS+saline (serum TNF-α [2]; experiment 1, 500 μg s.c.): 76% | reduction of serum TNF-α levels as compared to LPS only (serum TNF-α [2]; experiment 2, 500 μg s.c.): 89% | reduction of serum TNF-α levels as compared to LPS+saline (serum TNF-α [2]; experiment 2, 500 μg s.c.): 85% | reduction of serum TNF-α levels as compared to LPS only (serum TNF-α [2]; experiment 3, 500 μg s.c.): 85% | reduction of serum TNF-α levels as compared to LPS+saline (serum TNF-α [2]; experiment 3, 500 μg s.c.): 84% | overall reduction of serum TNF-α levels as compared to LPS only (serum TNF-α [2]; experiments 1-3, 500 μg s.c.): 85.4±2.98% | inhibition of TNF-α release (TNF-α secretion; 200 μM, 48 hours): 63% | TNF-α in the medium (TNF-α secretion; 200 μM, after 3 hours, 100 pg/ml without compound): no detectable | TNF-α (pg/ml), 3 Hrs. (TNF-α secretion; with Compound 1 200 μM, medium of stimulated peripheral blood T cells, 3 Hrs.): .dagger. | TNF-α (pg/ml), 24 Hrs. (TNF-α secretion; with Compound 1 200 μM, medium of stimulated peripheral blood T cells, 24 Hrs.): 100 pg/mL | TNF-α (pg/ml), 48 Hrs. (TNF-α secretion; with Compound 1 200 μM, medium of stimulated peripheral blood T cells, 48 Hrs.): 300 pg/mL | inhibitory effect on the release of TNF-β (TNF-β secretion; 200 μM, 24 and 48 hours): no inhibitory effect | TNF-β (pg/ml), 3 Hrs. (TNF-β secretion; with Compound 1 200 μM, 3 Hrs.): .dagger. | TNF-β (pg/ml), 24 Hrs. (TNF-β secretion; [3]): 160 pg/mL | TNF-β (pg/ml), 48 Hrs. (TNF-β secretion; [4]): 1050 pg/mL
